{"source": "patent US6528539B1", "about": "“Stable formulation containing fumagillin” (Sanofi-Synthelabo, priority 1999, dated 2003)", "origin": "cited, not measured here", "settings": "fumagillin as such; must be stored at −80° C.; literature studies named in b6"}
{"smiles": "COC1C(OC(=O)/C=C/C=C/C=C/C=C/C(=O)O)CCC2(CO2)C1[C@@]1(C)O[C@@H]1CC=C(C)C", "note": "(stereo in doubt) [Fumagillin, 2,4,6,8-decatetraenedioic acid mono[4-(1,2-epoxy-1,5-dimethyl-4-hexenyl)-5-methoxy-1-oxaspiro[2.5]oct-6-yl] ester]", "values": [{"measurement": "stability at ambient temperature", "value": "highly unstable at ambient temperature"}]}
